Literature values in patent publication US11890293B2, “Synthetic composition for treating metabolic disorders” (GLYCOM A/S, priority 2014, dated 2024).

Key:
[1] = tested on: type 2 diabetes-model mice; details: oral doses
[2] = tested on: high-fat diet rats
[3] = tested on: high-fat diet mice

## CC(=O)N[C@H]1[C@H](O[C@H]2[C@@H](O)[C@@H](CO)O[C@@H](O[C@H]3[C@H](O)[C@@H](O)C(O)O[C@@H]3CO)[C@@H]2O)O[C@H](CO)[C@@H](O[C@@H]2O[C@H](CO)[C@H](O)[C@H](O)[C@H]2O)[C@@H]1O (mixture of isomers) [LNnT, lacto-N-neotetraose]
[1]
  insulin secretion: promote insulin secretion

## CC(=O)N[C@H]1[C@H]([C@H](O)[C@H](O)CO)O[C@@](O[C@H]2[C@@H](O)[C@@H](CO)O[C@@H](O[C@H]3[C@H](O)[C@@H](O)C(O)O[C@@H]3CO)[C@@H]2O)(C(=O)O)C[C@@H]1O (stereo partly shown) [3′-SL, 3′-sialyllactose]
[2]
  fat accumulation in the liver and other organs: reduce/prevent fat accumulation in the liver and other organs
[1]
  insulin secretion: promote insulin secretion
[3]
  fat accumulation in the liver and other organs: reduce/prevent fat accumulation in the liver and other organs

## CC(=O)N[C@H]1[C@H]([C@H](O)[C@H](O)CO)O[C@@](OC[C@H]2O[C@@H](O[C@H]3[C@H](O)[C@@H](O)[C@H](O)O[C@@H]3CO)[C@H](O)[C@@H](O)[C@H]2O)(C(=O)O)C[C@@H]1O [6′-SL, 6′-sialyllactose]
[2]
  fat accumulation in the liver and other organs: reduce/prevent fat accumulation in the liver and other organs
[1]
  insulin secretion: promote insulin secretion
[3]
  fat accumulation in the liver and other organs: reduce/prevent fat accumulation in the liver and other organs
